Experimental data taken from ChEMBL document CHEMBL4673187, “Recent developments of small molecule gamma-secretase modulators for Alzheimer''s disease” (RSC Med Chem, 2020).
Values belong to the compound of their own block, whether it stands above or below them.

Key:
[1] = Lipophilicity, logD of the compound; type: physicochemical; conditions: octanol/water
Gamma-secretase [2] = experiment: Modulation of gamma-secretase in human H4 cells expressing human APP assessed as reduction in amyloid beta42 level incubated for 22 hrs; type: cell-based
[3] = In vivo modulation of gamma secretase in transgenic Tg2576 C57BL/6 mouse assessed as reduction in amyloid beta42 level at 10 mg/kg, po administered as single dose measured after 4 hrs by ELISA relative to control; type: functional; design: scale not given: the % may be the effect or the level left
[4] = In vivo modulation of gamma secretase in transgenic Tg2576 C57BL/6 mouse assessed as reduction in amyloid beta42 level at 30 mg/kg, po administered as single dose measured after 4 hrs by ELISA relative to control; type: functional; design: scale not given: the % may be the effect or the level left
[5] = Inhibition of notch signalling (unknown origin); design: species or system Homo sapiens
[6] = In vivo modulation of gamma secretase in C57BL/6 mouse assessed as reduction in amyloid beta42 level at 10 mg/kg, po measured at 3 hrs relative to control; type: functional; design: scale not given: the % may be the effect or the level left
[7] = In vivo modulation of gamma secretase in C57BL/6 mouse assessed as reduction in amyloid beta42 level at 30 mg/kg, po measured at 3 hrs relative to control; type: functional; design: scale not given: the % may be the effect or the level left
[8] = Modulation of gamma secretase in Wistar rat fetal brain-derived neuronal cell incubated for 3 days by ELISA; conditions: 72 h
[9] = In vivo modulation of gamma secretase in CF1 mouse assessed as reduction in brain amyloid beta40 level at 100 mg/kg, po measured after 4 hrs by ELISA relative to control; type: functional; design: scale not given: the % may be the effect or the level left
[10] = In vivo modulation of gamma secretase in CF1 mouse assessed as reduction in plasma amyloid beta40 level at 100 mg/kg, po measured after 4 hrs by ELISA relative to control; type: functional; design: scale not given: the % may be the effect or the level left
[11] = In vivo modulation of gamma secretase in CF1 mouse assessed as increase in plasma amyloid beta38 level at 100 mg/kg, po measured after 4 hrs by ELISA relative to control; type: functional
[12] = Ratio of drug level in CF1 mouse brain to plasma at 3 to 100 mg/kg, po measured after 4 hrs by liquid chromatography and tandem mass spectrometry; type: ADME, organism-based; conditions: dose 3-100 mg/kg, read-out: BPR
[13] = In vivo modulation of gamma secretase in CF1 mouse assessed as reduction in amyloid beta42 level at 10 mg/kg, po administered as single dose measured after 4 hrs by ELISA relative to control; type: functional; design: scale not given: the % may be the effect or the level left
Gamma-secretase [14] = experiment: Modulation of gamma-secretase in human H4 cells expressing human wild type APP751 assessed as reduction in amyloid beta42 level incubated for 17 hrs by ELISA; type: cell-based
[15] = In vivo modulation of gamma secretase in transgenic Tg2576 mouse assessed as reduction in insoluble amyloid beta42 level at 60 mg/kg, po administered once daily for 65 days by ELISA relative to control; type: functional; design: scale not given: the % may be the effect or the level left; conditions: time 65 day
[16] = In vivo modulation of gamma secretase in CF1 mouse assessed as increase in amyloid beta38 level at 10 mg/kg, po administered as single dose measured after 16 hrs by ELISA relative to control; type: functional
[17] = Maximum concentration of drug in po dosed CF1 mouse brain and measured at 4 hrs by liquid chromatography and tandem mass spectrometry; type: ADME, organism-based; design: route oral, time 4 hrs
[18] = In vivo modulation of gamma secretase in CF1 mouse assessed as reduction in plasma amyloid beta42 level at 100 mg/kg, po measured after 4 hrs by ELISA relative to control; type: functional; design: scale not given: the % may be the effect or the level left
[19] = In vivo modulation of gamma secretase in transgenic Tg2576 mouse assessed as reduction in soluble amyloid beta42 level at 60 mg/kg, po administered once daily for 65 days by ELISA relative to control; type: functional; design: scale not given: the % may be the effect or the level left; conditions: time 65 day
[20] = Modulation of gamma-secretase in CHO cells expressing APP V717F assessed as reduction in amyloid beta42 level; type: cell-based; conditions: Cricetulus griseus
Gamma-secretase [21] = experiment: Modulation of gamma-secretase in human H4 cells expressing human wild type APP751 assessed as increase in amyloid beta38 level incubated for 17 hrs by ELISA; type: cell-based
[22] = In vivo modulation of gamma secretase in CF1 mouse assessed as reduction in brain amyloid beta42 level at 100 mg/kg, po measured after 4 hrs by ELISA relative to control; type: functional; design: scale not given: the % may be the effect or the level left
[23] = Modulation of gamma-secretase in CHO cells expressing APP V717F assessed as increase in amyloid beta38 level; type: cell-based; conditions: Cricetulus griseus
[24] = In vivo modulation of gamma secretase in CF1 mouse assessed as increase in brain amyloid beta38 level at 100 mg/kg, po measured after 4 hrs by ELISA relative to control; type: functional

logD [1]: 2.8
SMILES: COc1cc(-c2nnc3n2CCCC32OCc3c(Cl)cccc3N(CC(F)(F)F)C2=O)ccc1-c1cnc(C)o1 (stereo not given)

logD [1]: 3.2
SMILES: COc1cc(-c2nnc3n2CCCC3(Oc2ccc(F)c(Cl)c2)C(C)(C)O)ccc1-c1cnc(C)o1 (stereo not given)

IC50 (Gamma-secretase [2]): 143 nM
SMILES: Cc1nsc(N2CCC(Nc3nc4c(-c5ccc(F)c(F)c5F)cccn4n3)C(F)(F)C2)n1 (stereo not given)

SMILES: O=C(O)[C@H](CC1CCC1)c1cc(Cl)c(OCC(F)(F)F)c(-c2ccc(C(F)(F)F)cc2)c1
Activity [3]: 22%
Activity [4]: 38%

logD [1]: 3.2
IC50 [5]: ≥ 10000 nM
SMILES: COc1cc(-c2nnc3n2CCC[C@]3(Oc2cc(F)c(F)c(F)c2)C(C)(C)O)ccc1-c1cnc(C)o1
Activity [6]: 44%

logD [1]: 3
SMILES: COc1cc(-c2nnc3n2CCCC3(Cc2ccc(F)c(F)c2)C(=O)NCC(F)(F)F)ccc1-c1cnc(C)o1 (stereo not given)
Activity [7]: 4%

IC50 [8]: 93 nM
SMILES: COc1cc(/C=C2\CCCN([C@@H](C)c3ccc(F)cc3)C2=O)ccc1-n1cnc(C)c1

logD [1]: 2.9
SMILES: COc1cc(-c2nnc3n2CCCC32OCc3c(cccc3C(F)(F)F)N(CC(F)(F)F)C2=O)ccc1-c1cnc(C)o1 (stereo not given)

logD [1]: 3.2
SMILES: COc1cc(-c2nnc3n2CCCC3c2ccc(Cl)c(Cl)c2)ccc1-c1cnc(C)o1 (stereo not given)

Kp at 4 h [12]: 0.8
IC50 (Gamma-secretase [14]): 64 nM
Cmax [17]: 7.5 µM
IC50 [20]: 170 nM
EC50 (Gamma-secretase [21]): 146 nM
EC50 [23]: 150 nM
SMILES: CC1CCN([C@H](c2ccc(F)cc2)c2ccc([C@@H](C)C(=O)O)cc2-c2ccc(C(F)(F)F)cc2)CC1
Activity [9]: 16%
Activity [10]: 25%
Activity [11]: 82%
Activity [13]: 40%
Activity [15]: 80%
Activity [16]: 50%
Activity [18]: 45%
Activity [19]: 50%
Activity [22]: 60%
Activity [24]: 98%

logD [1]: 3.2
SMILES: COc1cc(-c2nnc3n2CCC[C@@]3(Oc2cc(F)c(F)c(F)c2)C(C)(C)O)ccc1-c1cnc(C)o1
